# Test results from US11045480B2, “Anti-huLRRC15 antibody drug conjugates and methods for their use” (AbbVie Inc., priority 2015, dated 2021).
# T1: huLRRC15 (Homo sapiens, UniProt Q8TF66)
# T1 construct: endogenous in cells; host or cells: U118MG glioblastoma cells
# T1 sequence (Q8TF66 22-581): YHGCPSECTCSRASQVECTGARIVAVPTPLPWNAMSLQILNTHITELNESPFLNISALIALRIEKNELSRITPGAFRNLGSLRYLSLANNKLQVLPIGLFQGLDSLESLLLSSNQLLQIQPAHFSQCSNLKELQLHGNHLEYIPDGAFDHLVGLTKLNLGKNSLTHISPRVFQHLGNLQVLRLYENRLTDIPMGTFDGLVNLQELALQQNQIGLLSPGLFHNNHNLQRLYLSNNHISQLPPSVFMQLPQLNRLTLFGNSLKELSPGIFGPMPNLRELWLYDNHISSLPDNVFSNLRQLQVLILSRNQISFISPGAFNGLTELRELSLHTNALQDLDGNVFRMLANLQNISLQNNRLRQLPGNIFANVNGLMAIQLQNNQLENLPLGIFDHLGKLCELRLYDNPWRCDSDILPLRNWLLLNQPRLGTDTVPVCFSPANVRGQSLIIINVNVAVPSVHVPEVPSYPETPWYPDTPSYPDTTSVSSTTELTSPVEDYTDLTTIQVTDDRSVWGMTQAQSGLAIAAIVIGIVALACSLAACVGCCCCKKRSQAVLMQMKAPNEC
# B1: muAD209.9.1: murine anti-huLRRC15 antibody; VH SEQ ID NO:76, VL SEQ ID NO:77 (antibody, V domains shown)
# VH: QIQLVQSGPELKKPGETVKISCKASGFAITNFGMNWVKQAPGKGLKWMGWINLYTGEPTFADDFKGRFAFSLETSASTAYLQINNLKNEDTVIYFCARKGETYYRYDGFAYWGQGTLVTVSA
# VL: DIVMTQAAPSVPVTPGESVSISCRSSKSLLHSNGNTHLYWFLQRPGQSPQLLIYRMSNLASGVPDRFSGSGSGTAFTLRISRVEAEDVGVYYCMQLLEYPYTFGGGTKLEIE
# B2: huAD208.4.1-PBD-DAR2: PBD synthon vaPBD conjugated with anti-huLRRC15 antibody huAD208.4.1 to yield a DAR of 2 (conjugate)
# VH: EVQLVQSGAEVKKPGSSVKVSCKASGFTFTDYYIHWVKQAPGQGLEWIGLVYPYIGGTNYNQKFKGKATLTVDTSTTTAYMEMSSLRSEDTAVYYCARGDNKYDAMDYWGQGTTVTVSS
# VL: DIVLTQSPDSLAVSLGERATINCRASQSVSTSSYSYMHWYQQKPGQPPKLLIKYASSLESGVPDRFSGSGSGTDFTLTISSLQAEDVAVYYCEQSWEIRTFGGGTKVEIK
# What was measured:
# [1] = tested on: NW231 breast cancer xenograft; assay: NW231 xenograft tumor growth; assay type: in vivo, mouse; details: NW231, SCID mice; biologics 12 mg/kg IP Q4D×6; doxorubicin 1 mg/kg IV days 0, 4, 8, 13, 18 (FIG. 20D)
# Method: In FIG. 20D, NW231 breast cancer cells (10 million) were implanted subcutaneously into SCID mice, and mice were randomized when the tumors reached ˜150 mm^3 and dosed with biologics at 12 mg/kg intraperitoneally on a Q4D×6 (one dose given every 4 days for a total of 6 doses), while doxorubicin was dosed intravenously at 1 mg/kg on days 0, 4, 8, 13 and 18.
# [2] = tested on: NCI-H1650 (NSCLC) xenograft; assay: NCI-H1650 xenograft tumor growth; assay type: in vivo, mouse; details: NCI-H1650, SCID/Beige mice; for TGD, single agent / TGImax, single agent: biologics 6 or 12 mg/kg IP Q4D×6, erlotinib 100 mg/kg orally daily ×10, carboplatin 50 mg/kg IP Q4D×4 (FIG. 20A, 22A)
# Method: The potency of anti-huLRRC15 ADCs as compared to current standards of care was assessed in xenograft models with NCI-H1650 ([…]), HN5 (head and neck), EBC-1 (squamous NSCLC), NW231 (breast) and PANC1 (pancreatic) cancer cells. […] For FIG. 20A, NCI-H1650 cells (5 million cells) were implanted subcutaneously into SCID/Beige mice and tumors were randomized when they reached ˜200 mm^3 and dosed with biologics at 6 or 12 mg/kg intraperitoneally on a Q4D×6 (one dose given every 4 days for a total of 6 doses), while erlotinib was dosed orally daily for 10 days at 100 mg/kg, and carboplatin was dosed intraperitoneally Q4D×4 (one dose given every 4 days for a total of 4 doses) at 50 mg/kg.
# NCI-H1650 NSCLC cancer cells (5 million) were implanted subcutaneously into SCID/Beige mice, and mice were randomized when the tumors reached ˜200 mm^3 and dosed with biologics at 6 or 12 mg/kg intraperitoneally on a Q4D×6 (one dose given every 4 days for a total of 6 doses), while erlotinib was dosed orally daily at 100 mg/kg for 10 doses.
# NCI-H1650 NSCLC cancer cells (5 million) were implanted subcutaneously into SCID/Beige mice, and mice were randomized when the tumors reached ˜200 mm^3 and dosed on day 0 with isotype or ADC at 0.1, 0.3, or 0.6 mg/kg intraperitoneally.
# NCI-H1650 adeno NSCLC cells (5 million) were implanted subcutaneously into SCID/Beige mice, and mice were randomized when the tumors reached ˜225 mm^3 and dosed with ADC at 0.6 mg/kg or isotype antibody at 12 mg/kg intraperitoneally once on day 0.
# [3] = tested on: EBC-1 (human squamous NSCLC) xenograft; assay: EBC-1 xenograft tumor growth; assay type: in vivo, mouse
# Method: For the experiments, five million cells (EBC-1) that were grown in vitro were inoculated subcutaneously per mouse into the right flank of female SCID-Beige mice. Tumors were size matched at ˜200 mm^3, and dosed intraperitoneally (IP) Q4D×6 (1 dose given every 4 days for a total of 6 doses) as shown in FIG. 13A. Measurements of the length (L) and width (W) of the tumors were taken via electronic caliper and the volume was calculated according to the following equation: V=L×W^2/2.
# For this experiment, tumors were size matched at ˜200 mm^3, and dosed intraperitoneally (IP) Q7D×2 (1 dose given every 7 days for a total of 2 doses) as shown in FIG. 13C. […]
# 5 million cells were implanted subcutaneously into SCID/Beige mice, and mice were randomized when tumor group mean volumes reached ˜200 mm^3.
# In FIG. 20C, EBC1 cells (5 million) were implanted subcutaneously into SCID/Beige mice and mice were randomized when the tumors reached ˜200 mm^3 and dosed with biologics at 6 mg/kg intraperitoneally on a Q7D×2 (one dose given every 7 days for a total of 2 doses), while erlotinib was dosed orally daily for 10 days at 50 mg/kg, and carboplatin was dosed intraperitoneally Q4D×3 (one dose given every 4 days for a total of 3 doses) at 50 mg/kg.
# In FIG. 21B, EBC-1 squamous NSCLC cells (5 million) were implanted subcutaneously into SCID/Beige mice, and mice were randomized when the tumors reached ˜200 mm^3 and dosed with biologics at 6 mg/kg intraperitoneally on a Q7D×2 (one dose given every 7 days for a total of 2 doses), while gemcitabine was dosed intraperitoneally at 100 mg/kg (Q3D×3) (one dose given every three days for 3 doses total).
# [4] = tested on: HN5 (head and neck) xenograft; assay: HN5 xenograft tumor growth; assay type: in vivo, mouse; details: HN5, NSG mice; ADC 4.5 mg/kg IP Q4D×6; erlotinib 150 mg/kg orally daily ×10; cetuximab 3 mg/kg IP Q7D×3 (FIG. 20B)
# [5] = tested on: SCC-15 head and neck cancer xenograft; assay: SCC-15 xenograft tumor growth; assay type: in vivo, mouse; details: SCC-15, SCID mice; biologics 12 mg/kg IP Q7D×6; carboplatin 50 mg/kg IP Q4D×4 (FIG. 21E)
# Method: Radiation is a commonly used cytotoxic therapy in oncology. […] SCC-15 head and neck cancer cells (1 million) were implanted subcutaneously into SCID mice, and mice were randomized when the tumors reached ˜200 mm^3 and dosed with biologics at 12 mg/kg intraperitoneally on a Q4D×6 (one dose given every 4 days for a total of 6 doses), while the radiation was directed at the tumor with a single radiation dose of 15 Gy on day 0.
# SCC-15 head and neck cancer cells (1 million) were implanted subcutaneously into SCID mice, and mice were randomized when the tumors reached ˜200 mm^3 and dosed with biologics at 12 mg/kg intraperitoneally on a Q7D×6 (one dose given every 7 days for a total of 6 doses), while carboplatin was dosed intraperitoneally […] at 50 mg/kg Q4D×4 (one dose given every 4 days for a total of 4 doses).
# [6] = tested on: PANC1 (pancreatic) xenograft; assay: PANC1 xenograft tumor growth; assay type: in vivo, mouse; details: PANC1, SCID mice; biologics 12 mg/kg IP Q4D×6; gemcitabine 100 mg/kg IP Q3D×4 (FIG. 20E)
# Method: (§1) In FIG. 20E, PANC1 pancreatic cancer cells (10 million) were implanted subcutaneously into SCID mice, and mice were randomized when the tumors reached ˜125 mm^3 and dosed with biologics at 12 mg/kg intraperitoneally on a Q4D×6 (one dose given every 4 days for a total of 6 doses), while gemcitabine was dosed intraperitoneally at 100 mg/kg Q3D×4) (one dose given every three days for 4 doses total).
# [7] = tested on: HPAF-II (human pancreatic) xenograft; assay: HPAF-II xenograft tumor growth; assay type: in vivo, mouse; details: SCID mice, biologics 6 mg/kg IP Q4D×6, gemcitabine 100 mg/kg IP (Q3D×4)×2 (FIG. 21A)
# Method: For the experiment, 1 million cells (HPAF-II) that were grown in vitro were inoculated subcutaneously per mouse into the right flank of female SCID-Beige mice. Tumors were size matched at ˜200 mm^3, and dosed intraperitoneally (IP) Q4D×6 (1 dose given every 4 days for a total of 6 doses) as shown in FIG. 13B.
# as §1, with “21A, HPAF-II” for “20E, PANC1”, “(1” for “(10”, “˜200” for “˜125”, “6” for “12”, “(Q3D×4)×2” for “Q3D×4)”, “per cycle, 2 cycles with 8 total doses given).” for “total).”
# [8] = tested on: EBC-1 (human squamous NSCLC) xenograft; assay: EBC-1 xenograft tumor growth; assay type: in vivo, mouse; details: EBC-1, SCID/Beige mice; huM25-vcMMAE-E2 at 3 mg/kg (method: biologics 6 mg/kg IP Q7D×2); method: gemcitabine 100 mg/kg IP Q3D×3, result sentence names docetaxel (FIG. 21B)
# huLRRC15 = target: T1, huLRRC15; assay: Flow cytometry competition assay against labeled muM25 (muM25-AF488) on U118MG cells; assay type: binding; details: 1 μg/mL muM25-AF488, unlabeled test antibody 0.0001-100 μg/mL
# Description: Isotype control antibodies (human or mouse) were used as negative controls, and unlabeled muM25 was used as a positive control.
# In this assay, competition due to a test antibody binding to the same or a proximal epitope as the labeled reference antibody reduce binding of the reference labeled antibody.
# human BM-MSC (Lonza) = assay: In vitro cell killing of human mesenchymal stem cells with TGFβ; assay type: cell-based; details: human BM-MSC (Lonza) treated with 10 ng/mL TGFβ (FIG. 23B)
# [9] = EBC1, SCID/Beige mice, biologics 6 mg/kg IP Q7D×2, erlotinib 50 mg/kg orally daily ×10, carboplatin 50 mg/kg IP Q4D×3 (FIG. 20C)
# [10] = EBC-1, SCID/Beige mice, biologics 3 or 6 mg/kg IP Q4D×6, method: docetaxel 7.5 mg/kg IV, result sentence names gemcitabine (FIG. 21C)
# [11] = 0.6 mg/kg IP once on day 0 (FIG. 24G)
# [12] = EBC-1, SCID mice, 0.6 mg/kg Q7D×2 (FIG. 24H)
molecule,measurement,setting,value
"COc1cccc2c1C(=O)c1c(O)c3c(c(O)c1C2=O)C[C@@](O)(C(=O)CO)C[C@@H]3O[C@H]1C[C@H](N)[C@H](O)[C@H](C)O1 [doxorubicin, reference compound]",TGImax,[1],65%
"C#Cc1cccc(Nc2ncnc3cc(OCCOC)c(OCCOC)cc23)c1 [erlotinib, reference compound]","TGD, single agent",[2],77%
same,"TGImax, single agent",[2],90%
same,TGD,[3]; [9],14%
same,TGImax,[3]; [9],27%
same,TGD,[4],12%
same,TGImax,[4],23%
"N.N.O=C([O-])C1(C(=O)[O-])CCC1.[Pt+2] [carboplatin, reference compound]","TGD, single agent",[5],33%
same,"TGImax, single agent",[5],56%
same,"TGD, single agent",[2],77%
same,"TGImax, single agent",[2],56%
same,TGD,[3]; [9],43%
same,TGImax,[3]; [9],39%
"Nc1ccn([C@@H]2O[C@H](CO)[C@@H](O)C2(F)F)c(=O)n1 [gemcitabine, reference compound]",TGImax,[6],55%
same,"TGD, single agent",[3]; [10],171%
same,"TGImax, single agent",[3]; [10],95%
same,"TGD, single agent",[7],117%
same,"TGImax, single agent",[7],73%
"CC(=O)O[C@@]12CO[C@@H]1C[C@H](O)[C@@]1(C)C(=O)[C@H](O)C3=C(C)[C@@H](OC(=O)[C@H](O)[C@@H](NC(=O)OC(C)(C)C)c4ccccc4)C[C@@](O)([C@@H](OC(=O)c4ccccc4)[C@H]21)C3(C)C [docetaxel, reference compound]","TGD, single agent","[3]; EBC-1, SCID/Beige mice, huM25-vcMMAE-E2 at 3 mg/kg (method: biologics 6 mg/kg IP Q7D×2), method: gemcitabine 100 mg/kg IP Q3D×3, result sentence names docetaxel (FIG. 21B)",48%
same,"TGImax, single agent",[8],77%
B1,competition with labeled muM25 for binding cells expressing huLRRC15,huLRRC15,do not inhibit
B2,cell killing effect relative to isotype-PBD-DAR2 at the same doses,human BM-MSC (Lonza),higher cell killing effect
same,TGD,[2]; [11],> 388%
same,TGImax,[2]; [11],95%
same,TGD,[3]; [12],> 600%
same,TGImax,[3]; [12],91%
